Reference: patent US20240398694A1, “SKINCARE COMPOSITION CONTAINING SHATAVARI EXTRACT” (Bangkok Lab and Cosmetic Public Company Limited, priority 2023, published 2024)
Several values for one entry are separate records, joined by “and”; a condition that tells them apart may be missing. Equal values may be shown once. Read-outs that look alike come from different tables or passages of the source.

How the values were obtained:
5α-reductase = 5α-reductase inhibition activity in prostate cancer cells DU-145; type: cell-based, human; settings: FIG. 5, lanes 3 and 4 vs control lane 2
From the text: (§1) Prostate cancer cells are the representatives of the study of 5α-reductase inhibition activity due to the production of 5α-reductase in prostate cancer cells.

[1] = tested on: prostate cancer cells DU-145; settings: human
From the text: as §1

[2] = Free-radical DPPH binding study
From the text: From the free-radical DPPH binding study, Shatavari extract has an SC50 of 5.92+0.03 milligrams per milliliter. […] Also, the free-radical DPPH binding activity of non-diluted Shatavari extract is 91.15+0.97%.
(§2) These are used in free-radical binding studies by the DPPH method and in free-radical nitric oxide binding using Griess reagent.

[3] = Free-radical nitric oxide binding using Griess reagent; settings: triplicate
From the text: as §2

[4] = applying 10% vitamin C; cited from earlier work
breast cancer cells MCF7 = assay: Estrogen hormone stimulation activity: % survival of breast cancer cells MCF7; type: cell-based, human
From the text: Breast cancer cells are the representatives of the study of estrogen receptor stimulation activity because breast cancer cells are responsible for estrogen hormone.

For `CC(C)(C)NC(=O)[C@H]1CC[C@H]2[C@@H]3CC[C@H]4NC(=O)C=C[C@]4(C)[C@H]3CC[C@]12C` [finasteride], which “agarose gel band of 5α-reductase DNA (700-bp fragment) from treated DU-145 cells” value (5α-reductase) is on record?
The value was “faded”.

What about the “highest concentration non-cytotoxic to prostate cancer cells DU-145” value [1] of the same compound?
Its value is 10 micrograms per milliliter.

What about the “% Survival of prostate cancer cells DU-145 (means ± S.D.)” value ([1]; 0.01 μg/mL) of the same compound?
The value was 100.19%.

What about the “% Survival of prostate cancer cells DU-145 (means ± S.D.)” value ([1]; 0.1 μg/mL) of the same compound?
Its value is 99.75%.

What about the “% Survival of prostate cancer cells DU-145 (means ± S.D.)” value ([1]; 1 μg/mL) of the same compound?
Its value is 94.89%.

What about the “% Survival of prostate cancer cells DU-145 (means ± S.D.)” value ([1]; 100 μg/mL) of the same compound?
Its value is 0%.

Which “SC50 (IC50) of free-radical DPPH binding” value [2] does the source give for `O=C1O[C@H]([C@@H](O)CO)C(O)=C1O` [vitamin C, L-ascorbic acid] here?
Its value is 0.02 ± 0.01 milligrams per milliliter.

What about the “IC50 of free-radical nitric oxide binding” value [3] of the same compound?
Its value is 0.84 ± 0.02 milligrams per milliliter.

And the reduction of sunburn [4]?
The reduction of sunburn was 40-60%.

And the “reduction of the skin's redness from UVB exposure” value [4]?
The value was 52%.

Which “% survival of breast cancer cells MCF7 (means ± S.D.)” value (breast cancer cells MCF7; concentration 0.1 μg/mL) does the source give for `C[C@]12CC[C@@H]3c4ccc(O)cc4CC[C@H]3[C@@H]1CC[C@@H]2O` [β-estradiol] here?
Its value is 92.14%.

What about the “% survival of breast cancer cells MCF7 (means ± S.D.)” value (breast cancer cells MCF7; concentration 1 μg/mL) of the same compound?
Its value is 101.82%.

And the “% survival of breast cancer cells MCF7 (means ± S.D.)” value (breast cancer cells MCF7; concentration 10 μg/mL)?
Its value is 98.84%.

And the “% survival of breast cancer cells MCF7 (means ± S.D.)” value (breast cancer cells MCF7; concentration 100 μg/mL)?
Its value is 96.53%.

And the “% survival of breast cancer cells MCF7 (means ± S.D.)” value (breast cancer cells MCF7; concentration 1,000 μg/mL)?
The value was 107.2% and 107.20 ± 5.37%.
